Source: US9549552B2, “Active compound combinations having insecticidal properties” (BAYER CROPSCIENCE AKTIENGESELLSCHAFT, priority 2013, dated 2017)

Key:
Type in all cases: in vivo
Conditions in all cases: mortality
[1] = system: mustard beetle larvae (Phaedon cochleariae); experiment: Phaedon cochleariae spray test (Example A1, Chinese cabbage leaf disks)
Experimental: (§1) To produce a suitable preparation of active compound, 1 part by weight of active compound is mixed with the stated amount of solvent and emulsifier, and the concentrate is diluted with emulsifier-containing water to the desired concentration. To produce a suitable preparation of a spore suspension the spores are diluted with emulsifier-containing water to the desired concentration.
Chinese cabbage (Brassica pekinensis) leaf-disks are sprayed with a preparation of the active ingredient of the desired concentration. Once dry, the leaf disks are infested with mustard beetle larvae (Phaedon cochleariae).
(§2) After the specified period of time, mortality in % is determined 100% means all beetle larvae have been killed and 0% means none of the beetle larvae have been killed. The mortality values determined thus are recalculated using the Colby-formula (see sheet 1).

[2] = system: mustard beetle larvae (Phaedon cochleariae); experiment: Phaedon cochleariae spray test (Example A2, cabbage leaves)
Experimental: (§3) Solvent: 7 parts by weight of dimethylformamide
(§4) Emulsifier: alkylaryl polyglycol ether
(§5) To produce a suitable preparation of active compound, 1 part by weight of active compound is mixed with the stated amount of solvent and is diluted with water, containing an emulsifier concentration of 1000 ppm, to the desired concentration. Further test concentrations are prepared by dilution with emulsifier containing water Ammonium salt and/or penetration enhancer in a dosage of 1000 ppm are added to the desired concentration if necessary.
Cabbage leaves (Brassica oleracea) are treated by being sprayed with the preparation of the active compound of the desired concentration and are infested with mustard beetle larvae (Phaedon cochleariae).
After the specified period of time mortality in % is determined. 100% means all the beetle larvae have been killed and 0% means none of the beetle larvae have been killed. The mortality values determined thus are recalculated using the Colby-formula (see sheet 1).

[3] = system: mustard beetle larvae (Phaedon cochleariae); experiment: Phaedon cochleariae spray test (Example A3, Chinese cabbage leaf disks)
Experimental: as §5, with “solvents” for “solvent”, “water.” for “water Ammonium salt and/or penetration enhancer in a dosage of 1000 ppm are added to the desired concentration if necessary.”
Chinese cabbage (Brassica pekinensis) leaf disks are sprayed with a preparation of the active ingredient of the desired concentration. Once dry, the leaf disks are infested with mustard beetle larvae (Phaedon cochleariae).
as §2

[4] = system: two spotted spidermite (Tetranychus urticae); experiment: Tetranychus urticae spray test, OP-resistant (Example B, French beans)
Experimental: as §1
French beans (Phaseolus vulgaris) which are heavily infested with all stages of the two spotted spidermite (Tetranychus urticae), are sprayed with a preparation of the active ingredient of the desired concentration.
After the specified period of time, mortality in % is determined 100% means all spider mites have been killed and 0% means none of the spider mites have been killed. The mortality values determined thus are recalculated using the Colby-formula (see sheet 1).

[5] = system: caterpillars of the fall army worm (Spodoptera frugiperda); experiment: Spodoptera frugiperda spray test (Example C1, cotton leaves)
Experimental: as §3, §4
as §5, with “added” for “added to the desired concentration”
Cotton leaves (Gossypium hirsutum) are treated by being sprayed with the preparation of the active compound of the desired concentration and are infested with caterpillars of the fall army worm (Spodoptera frugiperda).
After the specified period of time mortality in % is determined. 100% means all the caterpillars have been killed and 0% means none of the caterpillars have been killed. The mortality values determined thus are recalculated using the Colby-formula (see sheet 1).

[6] = system: fall armyworm larvae (Spodoptera frugiperda); experiment: Spodoptera frugiperda spray test (Example C2, maize leaf sections)
Experimental: as §5, with “solvents” for “solvent”, “water.” for “water Ammonium salt and/or penetration enhancer in a dosage of 1000 ppm are added to the desired concentration if necessary.”
(§6) Maize (Zea mays) leaf sections are sprayed with a preparation of the active ingredient of the desired concentration. Once dry, the leaf sections are infested with fall armyworm larvae (Spodoptera frugiperda).
(§7) After the specified period of time, mortality in % is determined 100% means all caterpillars have been killed and 0% means none of the caterpillars have been killed. The mortality values determined thus are recalculated using the Colby-formula (see sheet 1).

[7] = system: fall armyworm larvae (Spodoptera frugiperda); experiment: Spodoptera frugiperda spray test (Example C3, maize leaf sections)
Experimental: as §1, with “preparation of the active compound,” for “preparation of active compound,”
as §6, §7

In the case of `Cc1cc(C(F)(C(F)(F)F)C(F)(F)F)ccc1NC(=O)c1cccc(Cl)c1C(=O)NC(C)(C)C#N` [(I-5)], the “Efficacy in % after 6 d” value ([1]; 4 g ai/ha) is reported as 0%, the “Efficacy in % after 2 d” value ([2]; 0.8 ppm) is reported as 0% and the “Efficacy in % after 1 d” value ([2]; 1.6 ppm) is reported as 0%. The “Efficacy in % after 6 d” value ([3]; 2 g ai/ha) was 0%, the “Efficacy in % after 2 d” value ([3]; 4 g ai/ha) was 0% and the “Efficacy in % after 6 d” value ([3]; 4 g ai/ha) was 0%. The “Efficacy in % after 6 d” value ([4]; 2 g ai/ha) was 0%, the “Efficacy in % after 6 d” value ([4]; 4 g ai/ha) was 0% and the “Efficacy in % after 6 d” value ([4]; 10 g ai/ha) was 0%. The “Efficacy in % after 2 d” value ([5]; 0.04 ppm) was 0%, the “Efficacy in % after 3 d” value ([5]; 0.04 ppm) was 0% and the “Efficacy in % after 2 d” value ([5]; 0.08 ppm) was 10%. For the same compound, the “Efficacy in % after 3 d” value ([5]; 0.08 ppm) was 20%, the “Efficacy in % after 2 d” value ([6]; 1 g ai/ha) was 0% and the “Efficacy in % after 6 d” value ([6]; 1 g ai/ha) was 33%. The “Efficacy in % after 6 d” value ([7]; 0.25 g ai/ha) was 0% and the “Efficacy in % after 6 d” value ([7]; 3 g ai/ha) was 33%.

In the case of `CCOCn1c(-c2ccc(Cl)cc2)c(C#N)c(Br)c1C(F)(F)F` [Chlorfenapyr], the “Efficacy in % after 2 d” value ([2]; 4 ppm) is reported as 20%, the “Efficacy in % after 1 d” value ([2]; 8 ppm) is reported as 5% and the “Efficacy in % after 6 d” value ([3]; 4 g ai/ha) is reported as 0%. The “Efficacy in % after 3 d” value ([5]; 0.8 ppm) was 0% and the “Efficacy in % after 2 d” value ([5]; 1.6 ppm) was 0%.

`O=C(NC(=O)c1c(F)cccc1F)Nc1cc(Cl)c(Oc2ncc(C(F)(F)F)cc2Cl)c(Cl)c1` [Chlorfluazuron] was tested, and the “Efficacy in % after 6 d” value ([3]; 8 g ai/ha) was 0%, the “Efficacy in % after 2 d” value ([5]; 0.4 ppm) was 0% and the “Efficacy in % after 3 d” value ([5]; 0.4 ppm) was 30%. The “Efficacy in % after 2 d” value ([6]; 2 g ai/ha) was 0% and the “Efficacy in % after 6 d” value ([6]; 2 g ai/ha) was 0%.

In the case of `COC(=O)N(C(=O)N1CO[C@@]2(C(=O)OC)Cc3cc(Cl)ccc3C2=N1)c1ccc(OC(F)(F)F)cc1` [Indoxacarb], the “Efficacy in % after 6 d” value ([3]; 4 g ai/ha) is reported as 0%, the “Efficacy in % after 2 d” value ([3]; 8 g ai/ha) is reported as 50% and the “Efficacy in % after 6 d” value ([3]; 8 g ai/ha) is reported as 50%. The “Efficacy in % after 2 d” value ([5]; 0.2 ppm) was 10%, the “Efficacy in % after 3 d” value ([5]; 0.2 ppm) was 20% and the “Efficacy in % after 2 d” value ([6]; 0.1 g ai/ha) was 0%. For the same compound, the “Efficacy in % after 6 d” value ([6]; 0.1 g ai/ha) was 0%.

With `CCOC(=O)OC1=C(c2cc(C)ccc2C)C(=O)N[C@]12CC[C@@H](OC)CC2` [Spirotetramat] the “Efficacy in % after 6 d” value ([1]; 0.8 g ai/ha) was 0%, the “Efficacy in % after 6 d” value ([4]; 0.8 g ai/ha) was 30% and the “Efficacy in % after 6 d” value ([4]; 2 g ai/ha) was 20%. For the same compound, the “Efficacy in % after 6 d” value ([7]; 15 g ai/ha) was 0%.
